Experiment [1] has as its system C57BL/6 mice. Description: MOG35-55 induced EAE model. Format: in vivo. The settings on record: 2 mg/kg.
The next experiment has as its target MC1R (Homo sapiens, UniProt Q01726). Description: Competitive binding with 125I-NDP-MSH, HEK293 membrane preparations, MC1R.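 For all read-outs here: Read-out: receptor-bound radioligand retained by filtration and counted.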 As to conditions: for Ki: Ki MC1R, competition with 125I-NDP-MSH.
For another experiment, the target named is MC4R (Homo sapiens, UniProt P32245). Description: Competitive binding with 125I-NDP-MSH, HEK293 membrane preparations, MC4R.
MC4R, sequence (P32245 whole entry): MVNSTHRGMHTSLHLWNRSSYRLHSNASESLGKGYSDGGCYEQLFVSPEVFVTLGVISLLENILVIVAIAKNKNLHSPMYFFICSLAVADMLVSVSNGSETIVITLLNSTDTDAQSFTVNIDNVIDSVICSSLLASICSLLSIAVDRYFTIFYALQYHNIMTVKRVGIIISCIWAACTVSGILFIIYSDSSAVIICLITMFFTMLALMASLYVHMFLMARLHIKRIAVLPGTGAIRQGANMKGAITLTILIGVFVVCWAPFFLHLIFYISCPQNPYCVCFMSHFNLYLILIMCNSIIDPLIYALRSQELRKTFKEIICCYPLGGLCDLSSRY
Experiment [2] relates to B16-F1 murine melanoma cells. Kind of experiment: Intracellular cAMP in B16-F1 melanoma cells. The format is cell-based. The settings on record: for EC50: B16-F1 cells, 10^-4-10^-11 M, 30 min, IBMX. The protocol: B16-F1 (melanoma cell line) cells from American Type Culture Collection (Manassas, Va.) were seeded into flat bottom 96 well plates at 5×10^4/well and cultured overnight in DMEM (Cambrex, Walkersville, Md.) supplemented with 2 mM glutamine, antibiotics (100 U/ml penicillin and 100 […]) and 10% heat-inactivated fetal bovine serum (Invitrogen, Grand Island, N.Y.). […] Cells were lysed and intracellular cAMP levels were measured by an enzyme immunoassay kit (Amersham Biosciences, Piscataway, N.J.). Forskolin (Sigma, St. Louis, Mo.) at 100 μM served as positive controls.
cAMP levels in B16-F1 melanoma cells after treatment with native α-MSH, RI α-MSH, or a scrambled control peptide were examined. The […] melanoma cell line expresses a high number of MCR1 receptors (3000-4000 receptors/cell) compared with macrophages cell lines which express only 100-200 receptors/cell. Therefore we selected to examine the effect of the RI α-MSH treatment on the melanoma cell line. Murine melanoma B16-F1 cells were treated with native α-MSH, RI α-MSH, or control scrambled peptide at concentrations 1 pg/ml-1 μg/ml. After 30 min, cells were lysed and intracellular cAMP was measured by an enzyme immunoassay. […] However, a higher concentration of RI α-MSH (100 ng/ml) was necessary to increase cAMP compared with native α-MSH which increased cAMP at a 10 pg/ml concentration. This difference in concentration of peptide necessary to increase cAMP levels may be the result of the binding affinity to the MCR1 receptor.
Murine melanoma B16-F1 cells were treated with native α-MSH, RI α-MSH, scrambled peptide control, KPV, or alanine substituted peptides of RI α-MSH at 1 μg/ml (FIG. 7B). […] Peptides designated 810, 811, and 812 have alanine substitutions in the central core tetrapeptide sequence (D-Trp D-Arg D-Phe D-His region; AA 5-8) (variant disclosed in SEQ ID NO:2) proposed to be involved in native α-MSH binding to the melanocortin receptor and its biological activity. […] The residues in the core tetrapeptide (wrfh) (variant disclosed in SEQ ID NO:2) and to a lesser extent, the methionine 4 of RI-MSH are critical for binding to MC1R.
B16-F1 murine melanoma cells were cultured into 96 well plates 5×10^4 cells/well overnight in media with L-glutamine and pen/strep and FBS. Media was removed and new media with IBMX was added to the cells for 1 hr. Cells were then treated with RI α-MSH, or RI α-MSH peptide analogs (890, 891, 892, 893, 894 or 895). Cells were lysed after 30 min using a cAMP assay kit and supernatant were used in the assay. Forskolin at 10 μM served as positive controls.
Intracellular cAMP was measured using a cAMP competition Assay Kit (Amersham Biosciences). All cell lysate samples were diluted 1:100 for analysis.
Murine melanoma B16-F1 cells were treated with RI α-MSH, or RI α-MSH analogs (869, 872, 880, 878, 886 and 890-895) at a concentration range of 10^−4-10^−11 M. cAMP levels from cells treated with RI α-MSH, or RI α-MSH analogs. […] See FIG. 22 for graphical data and Table 2 for EC50 data.

A further experiment has as its target MC3R (Homo sapiens, UniProt P41968). Description: Competitive binding with 125I-NDP-MSH, HEK293 membrane preparations, MC3R.
In another experiment the target is MC5R (Homo sapiens, UniProt P33032). Description: Competitive binding with 125I-NDP-MSH, HEK293 membrane preparations, MC5R. The settings on record: Ki MC5R, competition with 125I-NDP-MSH; cells noted in μM.
MC5R, sequence (P33032 whole entry): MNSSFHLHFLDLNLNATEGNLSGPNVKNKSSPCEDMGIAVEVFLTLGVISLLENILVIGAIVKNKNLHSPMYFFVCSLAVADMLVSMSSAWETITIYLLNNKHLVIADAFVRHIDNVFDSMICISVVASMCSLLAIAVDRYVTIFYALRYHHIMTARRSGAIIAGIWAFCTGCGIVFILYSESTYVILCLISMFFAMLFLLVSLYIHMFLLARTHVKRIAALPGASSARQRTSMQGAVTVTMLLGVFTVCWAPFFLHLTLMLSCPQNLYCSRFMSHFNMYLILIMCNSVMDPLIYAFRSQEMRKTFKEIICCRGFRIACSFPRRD
The target in the next experiment is mouse MC1R (Mus musculus, UniProt Q01727). Kind of experiment: Binding affinity to mouse MC1R (data not shown).
mouse MC1R, sequence (Q01727 whole entry): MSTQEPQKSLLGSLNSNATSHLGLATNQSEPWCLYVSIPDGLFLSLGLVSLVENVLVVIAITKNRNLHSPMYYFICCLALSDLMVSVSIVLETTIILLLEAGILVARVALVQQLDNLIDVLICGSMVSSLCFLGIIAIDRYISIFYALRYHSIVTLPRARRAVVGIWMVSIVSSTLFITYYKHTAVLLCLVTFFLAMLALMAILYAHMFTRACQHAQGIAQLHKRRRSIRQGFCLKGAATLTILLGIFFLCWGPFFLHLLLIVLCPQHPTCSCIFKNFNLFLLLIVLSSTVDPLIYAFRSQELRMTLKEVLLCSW
Experiment [3] deals with C57BL/6 mice. Description: LPS inflammation mouse model, serum cytokines. The format is in vivo. The settings on record: i.p. 30 min after LPS, serum at 2 h. Here is the method:
Male C57BL/6 mice were challenged with LPS (1 ug/mouse), i.p. After 30 min mice were treated with dexamethasone (2 mg/kg; Sigma), RI-α-MSH analog 891, or RI-α-MSH. At 2 hrs after LPS challenge, mice were bled for serum. Cytokine analysis was measured by flow cytometry with a cytometric bead array kit (BD Biosciences).
C57BL/6 mice were injected with LPS, i.p. and 30 minutes later native α-MSH or RI α-MSH analog 891 was administered i.p. at doses ranging from 5 mg/kg to 0.156 mg/kg. RI α-MSH analog 891 is an analog of RI α-MSH in which d-Cha and hsiiss D-amino acids were added to the core peptide sequence. […] MCP-1 was not affected by native α-MSH treatment (FIG. 16B).

Setting [4] is: peptides 5 to 0.156 mg/kg, dexamethasone 2 mg/kg.

Where a SMILES comes first, the peptide text is derived from it. [ ]: non-standard residue; d: D form. dCha = N[C@H](CC1CCCCC1)C(=O)O

The Ki is the equilibrium dissociation constant of an inhibitor or competing ligand from its target. Low values mean higher affinity, high ones lower affinity. Usually EC50 stands for the concentration at which the effect is half-maximal. Read a low EC50 as higher potency in that assay.

MC1R, sequence (Q01726 whole entry): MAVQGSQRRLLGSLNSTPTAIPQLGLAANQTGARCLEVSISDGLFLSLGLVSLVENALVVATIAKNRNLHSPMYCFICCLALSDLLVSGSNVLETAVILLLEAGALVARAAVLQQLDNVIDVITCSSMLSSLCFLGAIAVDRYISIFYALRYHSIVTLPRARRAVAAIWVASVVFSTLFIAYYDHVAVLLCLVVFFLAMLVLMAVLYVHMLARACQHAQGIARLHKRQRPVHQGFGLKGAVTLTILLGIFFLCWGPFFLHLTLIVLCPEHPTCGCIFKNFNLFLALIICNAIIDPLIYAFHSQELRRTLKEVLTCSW
MC3R, sequence (P41968 whole entry): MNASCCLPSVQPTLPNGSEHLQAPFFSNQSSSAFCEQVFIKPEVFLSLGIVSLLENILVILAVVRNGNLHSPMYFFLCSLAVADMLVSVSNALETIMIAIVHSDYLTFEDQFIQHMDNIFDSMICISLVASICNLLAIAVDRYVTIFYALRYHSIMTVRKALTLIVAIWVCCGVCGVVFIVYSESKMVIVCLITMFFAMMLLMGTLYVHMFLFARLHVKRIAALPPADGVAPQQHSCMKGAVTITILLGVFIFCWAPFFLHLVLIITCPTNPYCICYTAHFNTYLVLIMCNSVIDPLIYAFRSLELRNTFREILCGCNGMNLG
Protocol for MC3R: (§1) Binding analysis was done by Cerep laboratories (Paris, France) with coded samples.
(§2) The mixtures were filtered through 96-well GFC filters (Millipore, Billerica, Mass.), washed 3 times with binding buffer without BSA, dried and counted.
(§3) A competitive binding assay using a MCR panel including MCR 1, 3, 4, and 5 was performed.
Protocol for MC4R: as §1, §2, §3
Protocol for MC5R: as §1, §2, §3

`C[C@@H]1C[C@H]2[C@@H]3CCC4=CC(=O)C=C[C@]4(C)[C@@]3(F)[C@@H](O)C[C@]2(C)[C@@]1(O)C(=O)CO` [Dexamethasone, dexamethasone, reference compound]: the “maximum percent incidence of disease” value with C57BL/6 mice [1] was 40%.

On to `CSCC[C@@H](NC(=O)[C@@H](CCC(=O)O)NC(=O)[C@@H](Cc1c[nH]cn1)NC(=O)[C@@H](CC1CCCCC1)NC(=O)[C@@H](CCCNC(=N)N)NC(=O)[C@@H](Cc1c[nH]c2ccccc12)NC(=O)CNC(=O)[C@@H](CCCCN)NC(=O)[C@H]1CCCN1C(=O)[C@H](NC(C)=O)C(C)C)C(=O)N[C@H](CO)C(=O)N[C@H](Cc1ccc(O)cc1)C(=O)N[C@H](CO)C(N)=O` [compound 869, vpkGwr(D-Cha)hemsys], for which the inhibition constant Ki at MC1R was 2.2 nM; on MC4R, above 10 µM; on MC3R, above 30 µM; on MC5R, around 25 µM. For the same compound, the half-maximal effective concentration (EC50) in experiment [2] was determined as 14 nM.

Turning to `CCCCSCC[C@@H](NC(=O)[C@@H](CCC(=O)O)NC(=O)[C@@H](Cc1c[nH]cn1)NC(=O)[C@@H](Cc1ccccc1)NC(=O)[C@@H](CCCNC(=N)N)NC(=O)[C@@H](Cc1c[nH]c2ccccc12)NC(=O)CNC(=O)[C@@H](CCCCN)NC(=O)[C@H]1CCCN1C(=O)[C@H](NC(C)=O)C(C)C)C(=O)N[C@H](CO)C(=O)N[C@H](Cc1ccc(O)cc1)C(=O)N[C@H](CO)C(N)=O` [compound 878, vpkGwrfhe(D-buthionine)sys], the inhibitory constant (Ki) was 2.3 nM on MC1R, above 30 µM on MC4R, around 40 µM at MC3R and around 30 µM at MC5R.

As for `CC[C@@H](C)[C@@H](NC(=O)[C@@H](CO)NC(=O)[C@@H](Cc1c[nH]cn1)NC(=O)[C@H](Cc1ccccc1)NC(=O)[C@@H](CCCNC(=N)N)NC(=O)[C@@H](Cc1c[nH]c2ccccc12)NC(=O)CNC(=O)[C@@H](CCCCN)NC(=O)[C@H]1CCCN1C(=O)[C@H](NC(C)=O)C(C)C)C(=O)N[C@@H](C(=O)N[C@H](CO)C(=O)N[C@H](CO)C(N)=O)[C@H](C)CC` [compound 880, vpkGwrFhsiiss] (Ac-[dV][dP][dK]G[dW][dR]F[dH][dS][dI][dI][dS][dS]-NH2), the Ki was 1.8 ± 3.5 nM on MC1R, around 10 µM on MC4R, around 18 µM at MC3R and above 30 µM on MC5R. Further, the midpoint of the response in experiment [2], the EC50, lay at 23 nM.

As for `CC[C@@H](C)[C@@H](NC(=O)[C@@H](CO)NC(=O)[C@@H](Cc1c[nH]cn1)NC(=O)[C@@H](Cc1ccccc1)NC(=O)[C@@H](CCCNC(=N)N)NC(=O)[C@@H](Cc1c[nH]c2ccccc12)NC(=O)CNC(=O)[C@@H](CCCCN)NC(=O)[C@H]1CCCN1C(=O)[C@H](NC(C)=O)C(C)C)C(=O)N[C@@H](C(=O)N[C@H](CO)C(=O)N[C@H](CO)C(N)=O)[C@H](C)CC` [compound 886, vpkgwrfhsiiss] (Ac-[dV][dP][dK]G[dW][dR][dF][dH][dS][dI][dI][dS][dS]-NH2), the Ki at MC1R is 1 nM; at MC4R, around 10 µM; on MC3R it was around 19 µM; at MC5R, around 20 µM. This compound also returned a concentration for a half-maximal effect (EC50) in experiment [2] of 2 nM.

Consider `CCCCSCC[C@@H](NC(=O)[C@@H](CCC(=O)O)NC(=O)[C@@H](Cc1c[nH]cn1)NC(=O)[C@@H](CC1CCCCC1)NC(=O)[C@@H](CCCNC(=N)N)NC(=O)[C@@H](Cc1c[nH]c2ccccc12)NC(=O)CNC(=O)[C@@H](CCCCN)NC(=O)[C@H]1CCCN1C(=O)[C@H](NC(C)=O)C(C)C)C(=O)N[C@H](CO)C(=O)N[C@H](Cc1ccc(O)cc1)C(=O)N[C@H](CO)C(N)=O` [compound 890, vpkGwr(D-Cha)he(d-Buthionine)sys], for which the Ki at MC1R was 1.9 nM; on MC4R, around 14 µM; on MC3R, around 15 µM; on MC5R, around 4.5 µM.

As to `CC[C@@H](C)[C@@H](NC(=O)[C@@H](CO)NC(=O)[C@@H](Cc1c[nH]cn1)NC(=O)[C@@H](CC1CCCCC1)NC(=O)[C@@H](CCCNC(=N)N)NC(=O)[C@@H](Cc1c[nH]c2ccccc12)NC(=O)CNC(=O)[C@@H](CCCCN)NC(=O)[C@H]1CCCN1C(=O)[C@H](NC(C)=O)C(C)C)C(=O)N[C@@H](C(=O)N[C@H](CO)C(=O)N[C@H](CO)C(N)=O)[C@H](C)CC` [compound 891, vpkGwr(D-Cha)hsiiss] (Ac-[dV][dP][dK]G[dW][dR][dCha][dH][dS][dI][dI][dS][dS]-NH2), at MC1R, the “affinity for MC1R compared with parent peptide (in words)” value is listed as “indistinguishable from MSH”. Besides, the Ki is 0.43 ± 0.01 nM at MC1R, around 3.2 µM at MC4R, around 8 µM on MC3R and around 2.5 µM at MC5R. Further, the “binding affinity to mouse MC1R (in words)” value at mouse MC1R was “increased binding affinity”. In addition, in experiment [2], the EC50 was 81 nM. Besides, the “potency to stimulate cAMP (in words)” value in experiment [2] (data not shown) is on record as “increased potency to stimulate cAMP”. Moreover, in the experiment on C57BL/6 mice [3] (5 to 0.156 mg/kg), the “serum IL-10 vs vehicle (in words)” value is “significant decrease”. For the same compound, the “serum MCP-1 vs vehicle (in words)” value with C57BL/6 mice [3] (setting [4]) is listed as “no affect”. Moreover, in the experiment with C57BL/6 mice [3] (setting [4]), the “serum TNF-α vs vehicle (in words)” value is reported as “significant decrease”.

As to `CSCC[C@@H](NC(=O)[C@@H](CCC(=O)O)NC(=O)[C@@H](Cc1c[nH]cn1)NC(=O)[C@@H](Cc1ccccc1)NC(=O)[C@@H](CCCNC(=N)N)NC(=O)[C@H](Cc1c[nH]c2ccccc12)NC(=O)CNC(=O)[C@@H](CCCCN)NC(=O)[C@H]1CCCN1C(=O)[C@H](NC(C)=O)C(C)C)C(=O)N[C@H](CO)C(=O)N[C@H](Cc1ccc(O)cc1)C(=O)N[C@H](CO)C(N)=O` [compound 893, vpkGWrfhemsys], the Ki at MC1R was 6.5 nM; at MC3R, around 28 µM; on MC5R, around 27 µM. Moreover, the EC50 in experiment [2] was determined as 270 nM.

In the case of `CSCC[C@@H](NC(=O)[C@@H](CCC(=O)O)NC(=O)[C@@H](Cc1c[nH]cn1)NC(=O)[C@@H](Cc1ccccc1)NC(=O)[C@H](CCCNC(=N)N)NC(=O)[C@@H](Cc1c[nH]c2ccccc12)NC(=O)CNC(=O)[C@@H](CCCCN)NC(=O)[C@H]1CCCN1C(=O)[C@H](NC(C)=O)C(C)C)C(=O)N[C@H](CO)C(=O)N[C@H](Cc1ccc(O)cc1)C(=O)N[C@H](CO)C(N)=O` [compound 894, vpkGwRfhemsys], the Ki at MC1R was 380 nM; on MC3R, above 30 µM; on MC5R, above 30 µM. Moreover, the EC50 in experiment [2] turned out to be 212000 nM.

As for `CSCC[C@@H](NC(=O)[C@@H](CCC(=O)O)NC(=O)[C@H](Cc1c[nH]cn1)NC(=O)[C@@H](Cc1ccccc1)NC(=O)[C@@H](CCCNC(=N)N)NC(=O)[C@@H](Cc1c[nH]c2ccccc12)NC(=O)CNC(=O)[C@@H](CCCCN)NC(=O)[C@H]1CCCN1C(=O)[C@H](NC(C)=O)C(C)C)C(=O)N[C@H](CO)C(=O)N[C@H](Cc1ccc(O)cc1)C(=O)N[C@H](CO)C(N)=O` [compound 895, vpkGwrfHemsys], the Ki at MC1R was 19 nM; on MC3R, around 37 µM; at MC5R it was around 37 µM. The compound further yielded an EC50 in experiment [2] of 300 nM.

For the origin of these results see patent publication US10385108B2, “Peptide analogs of alpha-melanocyte stimulating hormone” (Genzyme Corporation, priority 2008, dated 2019).
